Here are results for one molecule from ChEMBL document CHEMBL3639371, “KAT II inhibitors” (2013).

The test concerns the target Kynurenine/alpha-aminoadipate aminotransferase, mitochondrial (Homo sapiens, UniProt Q8N5Z0). The test is described as follows: Inhibition Spectra Assay : Formation of kynurenic acid (KYNA) is indirectly assessed by a decrease in light absorbance at 370 nm (OD370) as the L-kynurenine (KYN) substrate is converted by the human KAT II (hKAT II) enzyme into KYNA.

Kynurenine/alpha-aminoadipate aminotransferase, mitochondrial, sequence (Q8N5Z0 whole entry): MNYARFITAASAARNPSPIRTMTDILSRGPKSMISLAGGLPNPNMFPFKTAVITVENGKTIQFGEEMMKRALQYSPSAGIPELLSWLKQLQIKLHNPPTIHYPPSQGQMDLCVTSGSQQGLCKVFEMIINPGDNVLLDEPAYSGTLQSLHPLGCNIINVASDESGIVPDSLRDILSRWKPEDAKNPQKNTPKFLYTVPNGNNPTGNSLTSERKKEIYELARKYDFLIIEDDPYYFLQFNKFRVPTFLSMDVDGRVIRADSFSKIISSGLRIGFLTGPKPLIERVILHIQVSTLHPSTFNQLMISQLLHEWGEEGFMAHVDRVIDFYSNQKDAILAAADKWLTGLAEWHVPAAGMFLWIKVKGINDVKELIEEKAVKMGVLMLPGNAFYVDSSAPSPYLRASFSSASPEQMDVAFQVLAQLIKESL

The term IC50 denotes the concentration needed to halve the response being measured. With `NC1Cc2nn(-c3ccccc3)cc2N(O)C1=O` (stereo unspecified), the IC50 amounted to 0.085 µM.
